Test [1] has as its system purified P. falciparum merozoites invading RBCs. The test can be described thus: Invasion inhibition assay (IIA) using purified merozoites. It is filed as cell-based, Plasmodium falciparum. The protocol:
Purified merozoites were mixed with uninfected RBCs and cultured using standard conditions in 96 well U-bottom plates at a final volume of 50 μl or 100 μl per well. Specific assay conditions were varied for different test conditions, as described in the Results section of the manuscript. Assays were typically performed under static conditions. Some assays were also performed with agitation of merozoite:RBC suspensions.
To test the activity of inhibitory compounds on invasion (Supporting Information Table 3), E64 treated schizonts were resuspended and filtered in culture medium without human serum. A typical merozoite invasion inhibition assay consisted of filtered merozoites (40 ul) added to RBC suspension (5 ul at […]; final concentration 1% hematocrit) and inhibitory compounds (5 ul at 10-times the final concentration required) in 96-well plates. Merozoite:RBCs suspensions containing inhibitors were incubated for one hour and then washed twice with culture medium to remove inhibitors, then resuspended in fresh culture media and incubated and analysed as for standard merozoite invasion assays. A number of compounds were also tested for inhibition of schizont rupture by incubating late stage schizonts (1-2% parasitaemia, 1% haematocrit in 50 ul) with a 1 in 10 dilution of compounds and monitoring the course of schizont rupture at 3 time points over an 8 hour period by flow cytometry.

Test [2] concerns P. falciparum blood stage growth. The test can be described thus: Growth inhibition assay (GIA), flow cytometry. The test is classed as cell-based, Plasmodium falciparum. The settings on record: for inhibitory activity against P. falciparum blood stage growth in GIA (words) / IC50, inhibition of P. falciparum blood stage growth in GIA: 3D7 parasite line; for IC50, inhibition of P. falciparum blood stage growth in GIA: one cycle of parasite growth. Here is the method: P. falciparum was cultured as described. Parasites were maintained in culture media of RPMI-HEPES supplemented with 5% (vol/vol) heat inactivated (56° C. 1 hr) human serum (Australian Red Cross Blood Bank),. […] (Gibco), 10mM L-glutamine (Gibco) and 25 mM […]. Parasites were grown at 37° C., 2% hematocrit, O+ human erythrocytes (Australian Red Cross Blood Bank), 1% O2 4% CO2 95% N2 atmosphere. Sorbitol (Sigma-Aldrich) was used to synchronize cultures. 32. Persson K E, Lee C T, Marsh K, Beeson J G (2006) Development and optimization of high-throughput methods to measure Plasmodium falciparum-specific growth inhibitory antibodies. J Clin Microbiol 44: 1665-1673.33. Lambros C, Vanderberg J P (1979) Synchronization of Plasmodium falciparum erythrocytic stages in culture. J Parasitol 65: 418-420.
Heparin and K5 polysaccharides (Table 1) were tested for inhibitory activity against P. falciparum parasites using high throughput growth inhibitory assays (GlAs). Duplicate 25 μl suspensions of synchronized parasites, 2% parasitemia (32 hr trophozoite), 1% hematocrit with normal or enzymatically treated erythrocyctes, were incubated with inhibitory compounds in 96 well sterile U-bottom plates (Falcon). For humidification, outside wells were filled with sterile human tonicity phosphate-buffered saline (HT-PBS). Plates were incubated as for parasite culture for 44 hrs and analyzed. Parasites were stained with 10 μg/mL ethidium bromide (EtBr) (BioRad), HT-PBS, 1 hr in darkness. Cells were washed and re-suspended in 200 μL HT-PBS. Parasitemia was measured using FACSCalibur flow-cytometry. Data were analyzed using FlowJo (Tree Star), gating on intact erythrocytes and determining parasitemia by EtBr staining. Inhibitory effects of compounds were expressed as percent growth of uninhibited controls (HT-PBS) for each experiment.
Erythrocytes were treated with neuraminidase, chymotrypsin and trypsin as described previously. Erythrocytes were washed with RPMI-HEPES and incubated with neuraminidase ([…], 15 minutes), chymotrypsin (1 mg/mL, 45 minutes) or trypsin (100 μg/mL, […]) at 37° C. Neuraminidase treated bells were washed three times with RPMI-HEPES and chymotrypsin and trypsin treated cells were washed once with culture media and twice with RPMI-HEPES and then used in GIAs. 34. Persson K E, McCallum F J, Reiling L, Lister N A, Stubbs J, et al. (2008) Variation in use of erythrocyte invasion pathways by Plasmodium falciparum mediates evasion of human inhibitory antibodies. J Clin Invest 118: 342-351.
(Flow cytometry measures light scatter and fluorescence of single cells or particles in a stream.)

Test [3] addresses T1, MSP1-42 (Plasmodium falciparum, UniProt Q8I0U8). Description: Heparin-BSA binding assay. Further details: a C-terminal 42kDa (MSP1-42) fragment; made in house; host or cells: E. coli; species or system P. falciparum. The settings on record: soluble inhibitor. The protocol: (§1) Recombinant merozoite antigens were coated (1 μg/mL) onto 96 well plates (Nunc Maxisorb) in HT-PBS overnight at 4° C. Plates were washed and blocked with 1% casein, 1 hr, room temperature. Plates were incubated with heparin-BSA conjugate with soluble inhibitors and detected with anti-BSA (rabbit) (Sigma-Aldrich) antibodies and anti-rabbit -HRP. Detection was performed with 2,2′-azino-bis(3-ethylbenzthiazoline-6-sulphonic acid) (Sigma-Aldrich) monitored for colour change and measured for absorbance at 405 nm. All incubations were performed in HT-PBS 0.1% casein 0:05% Tween20, 1 hr at room temperature. Plates were washed 3 times HT-PBS 0.05% Tween20 between incubations.

Test [4] addresses T1, MSP1-42. The test can be described thus: Binding of native merozoite proteins to heparin-agarose beads with soluble inhibitors. Details: proteolytically processed into 83 kDa, 30 kDa, 38 kDa and a C-terminal 42kDa (MSP1-42) fragment; endogenous in cells; host or cells: P. falciparum schizont-stage cultures, Triton X-100 extract; species or system P. falciparum. The settings on record: soluble inhibitor 200 μg/mL. From the text:
Synchronized schizont stage (40-48 hr, 5-8% parasitemia) cultures were used for protein extraction. Uninfected erythrocytes were lysed with 0.15% saponin (Kodak) on ice for ten minutes. Remaining pellets were washed three times with cold HT-PBS. Protein from schizonts was extracted with 5 times volume of 1% TritonX100 (TX100) (Sigma-Aldrich, Australia), HT-PBS with protease inhibitors (Roche). Insoluble components were pelleted by centrifugation and supernatants collected. Schizont TX100 extracted proteins were bound to heparin-agarose beads (Sigma-Aldrich, Australia) as previously described. Heparin-agarose beads were washed once with 1% casein in PBS, once in PBS, and then blocked with 1% casein in PBS overnight at 4° C. TX100 merozoite protein extracts where incubated with beads containing 0.1% casein and 200 μg/mL of test inhibitor, or PBS as control, overnight at 4° C.; 50 μL of packed beads and 100 μL protein and inhibitor were used or each test sample. Inhibitors used were heparin and CSC. Unbound proteins in the supernatant were collected through Micro Bio-Spin Chromatography Columns (Bio-Rad). After incubation, beads were washed five times with PBS containing 0.1% casein and 1% Triton X-100. Bound proteins were eluted from beads with 50 μL of warmed reducing sample buffer. Bound and unbound proteins were separated by SDS-PAGE under reducing conditions and blotted onto membranes for probing with antibody detection with anti-MSP1 or anti-EBA175. 36. Baum J, Chen L, Healer J, Lopaticki S, Boyle M, et al. (2009) Reticulocyte-binding protein homologue 5—an essential adhesin involved in invasion of human erythrocytes by Plasmodium falciparum: Int J Parasitol 39: 371-380.

Test [5] addresses T2, lactoferrin (Homo sapiens, UniProt P02788).
T2 construct: purchased
Description: Heparin-BSA binding assay (positive control protein). The note with it: data not shown. Here is the method: as §1

The test system of test [6] is P. falciparum schizonts. The test can be described thus: Schizont rupture under E64 treatment. It is filed as cell-based, Plasmodium falciparum. The settings on record: 10 uM E64. The protocol: Parasites were then incubated until most parasites had developed to late-stage pigmented trophozoites and schizonts (typically 40-42 hours). Early to mid schizont stage parasites (40-44 hours post invasion) were separated from uninfected RBC and early-stage infected RBCs (resulting in >95% purity) with a MAC magnet separation column (Macs Miltenyi Biotec). Purified schizonts were then incubated with 10 uM of E64 (Sigma) for 7-8 hours; Applicant typically used approximately 30 ml of culture media for every 100 ml of starting culture (3% hematocrit, 3% parasitemia). After approximately 6 hours of incubation with E64, treated schizonts were pelleted by centrifugation at 1900 g for 5 minutes. Supernatant was removed and schizonts were resuspended in fresh culture media. Resuspended E64 treated parasites were filtered through a 1.2 um Acrodisc 32 mm syringe filter (Pall Corporation). […]
To test the activity of inhibitory compounds on invasion (Supporting Information Table 3), E64 treated schizonts were resuspended and filtered in culture medium without human serum. […] Merozoite:RBCs suspensions containing inhibitors were incubated for one hour and then washed twice with culture medium to remove inhibitors, then resuspended in fresh culture media and incubated and analysed as for standard merozoite invasion assays. […]

Consider 16 compounds from patent publication US20120108538A1, “SULFATED POLYSACCHARIDES HAVING ANTIPLASMODIAL ACTIVITY AND METHODS AND PRODUCTS FOR IDENTIFYING ANTIPLASMODIAL ACTIVITY” (priority 2009, published 2012).

Values after ≈ are worked out from the molar mass of the structure shown. “Also recorded” adds a separate entry of the source. Ends that are not written are not given here.

T1 sequence (Q8I0U8 1327-1699): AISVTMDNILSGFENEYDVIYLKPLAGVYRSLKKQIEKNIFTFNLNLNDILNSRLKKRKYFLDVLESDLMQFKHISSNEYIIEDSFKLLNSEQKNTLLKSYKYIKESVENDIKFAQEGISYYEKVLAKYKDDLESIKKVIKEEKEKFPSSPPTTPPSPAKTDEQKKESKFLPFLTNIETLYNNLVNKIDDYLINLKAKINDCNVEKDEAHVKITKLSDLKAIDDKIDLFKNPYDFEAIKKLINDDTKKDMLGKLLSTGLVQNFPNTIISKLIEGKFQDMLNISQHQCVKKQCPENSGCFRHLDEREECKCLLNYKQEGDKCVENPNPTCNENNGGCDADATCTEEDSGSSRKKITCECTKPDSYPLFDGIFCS
T2 sequence (P02788 20-710, species assumed): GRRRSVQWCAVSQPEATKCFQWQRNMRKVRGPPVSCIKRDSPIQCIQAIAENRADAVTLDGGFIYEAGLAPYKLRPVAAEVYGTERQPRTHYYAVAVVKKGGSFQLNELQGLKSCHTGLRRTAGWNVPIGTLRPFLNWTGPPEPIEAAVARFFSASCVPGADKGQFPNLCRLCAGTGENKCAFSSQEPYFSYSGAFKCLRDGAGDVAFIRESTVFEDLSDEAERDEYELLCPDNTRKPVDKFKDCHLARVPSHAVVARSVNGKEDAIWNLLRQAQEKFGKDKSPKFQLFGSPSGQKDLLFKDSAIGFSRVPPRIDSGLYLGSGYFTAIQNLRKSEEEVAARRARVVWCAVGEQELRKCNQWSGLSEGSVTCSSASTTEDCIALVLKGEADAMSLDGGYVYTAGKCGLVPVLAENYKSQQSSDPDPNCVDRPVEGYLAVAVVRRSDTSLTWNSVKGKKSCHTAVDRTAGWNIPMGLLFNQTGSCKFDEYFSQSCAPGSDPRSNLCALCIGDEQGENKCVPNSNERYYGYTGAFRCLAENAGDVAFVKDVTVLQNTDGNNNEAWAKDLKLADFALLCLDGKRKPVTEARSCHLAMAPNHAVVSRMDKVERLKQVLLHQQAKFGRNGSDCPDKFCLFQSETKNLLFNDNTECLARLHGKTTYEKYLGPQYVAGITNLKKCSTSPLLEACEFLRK

“VFAEFLPLFSKFGSRMHILK [AMA1-binding peptide]”: the “inhibition of merozoite invasion in IIA” value in test [1] is recorded as “effectively inhibited merozoite invasion”.

On to “de-N de-O-sulfated heparin [de-N/O-sulfated heparin]”, for which the “inhibitory activity against P. falciparum blood stage growth in GIA (words)” value in test [2] is on record as “loss of inhibitory activity”; in test [2] (listed as Completely desulfated heparin), “no activity”. Further, the “inhibition of heparin-BSA binding to recombinant MSP1-42” value in test [3] was “inhibition”.

As to fucoidan, the “IC50, inhibition of P. falciparum blood stage growth in GIA” value in test [2] is 38 µg/mL.

As for `O=C(O)CN(CCN(CC(=O)O)CC(=O)O)CC(=O)O` [EDTA], in test [1], the “inhibition of merozoite invasion in IIA” value was “inhibited invasion”.

As for `C=C1[C@@H](C)[C@H]2[C@H](Cc3ccccc3)NC(=O)[C@]23[C@H](OC(C)=O)/C=C/[C@@](C)(O)C(=O)[C@@H](C)C/C=C/[C@H]3[C@@H]1O` [cytochalasin D], the “inhibition of merozoite invasion in IIA” value in test [1] was “effectively inhibited merozoite invasion”.

In the case of de-2-O-sulfated heparin, in test [2], the “inhibitory activity against P. falciparum blood stage growth in GIA (words)” value is recorded as “reduced activity” and the “IC50, inhibition of P. falciparum blood stage growth in GIA” value was 123 µg/mL.

de-6-O-sulfated heparin: in test [2], the “inhibitory activity against P. falciparum blood stage growth in GIA (words)” value is listed as “reduced activity” and the “IC50, inhibition of P. falciparum blood stage growth in GIA” value was 373 µg/mL. Further, in test [4], the “inhibition of native MSP1-42 binding to heparin-agarose beads” value (“inhibition of native MSP1-42 binding” below) is “not”. In addition, the “inhibition of native MSP1-42 binding” value in test [4] (listed as de-60-sulfated) is listed as “unable to inhibit binding”. Further, in test [3], the “inhibition of heparin-BSA binding to recombinant MSP1-42” value is reported as “inhibition”.

Regarding `CO[C@H]1O[C@H](COS(=O)(=O)O)[C@@H](O[C@@H]2O[C@@H](C(=O)O)[C@@H](O[C@H]3O[C@H](COS(=O)(=O)O)[C@@H](O[C@@H]4O[C@H](C(=O)O)[C@@H](O[C@H]5O[C@H](COS(=O)(=O)O)[C@@H](O)[C@H](O)[C@H]5NS(=O)(=O)O)[C@H](O)[C@H]4O)[C@H](OS(=O)(=O)O)[C@H]3NS(=O)(=O)O)[C@H](O)[C@H]2OS(=O)(=O)O)[C@H](O)[C@H]1NS(=O)(=O)O` [Fondaparinux], in test [2] (Plasmodium falciparum, read-out: IC50 against Plasmodium falciparum invasion), the IC50 (usually the concentration at which inhibition is half-maximal) is ~100 µg/mL (≈ 66.3 µM).

On to chondroitin sulfate D [CSD], for which the “inhibitory activity against P. falciparum blood stage growth in GIA (words)” value in test [2] is recorded as “not inhibitory”.

In the case of chondroitin sulfate C [CSC], the “inhibitory activity against P. falciparum blood stage growth in GIA (words)” value in test [2] is recorded as “non-inhibitory; also recorded: not inhibitory”. Besides, in test [4], the “inhibition of native MSP1-42 binding” value is listed as “not”. In addition, in test [5], the “inhibition of lactoferrin binding to heparin-BSA” value was “not”.

For chondroitin sulfate E [CSE], the “inhibition of different P. falciparum lines” value in test [2] (3D7, W2mef, D10, E8B, XIE, HCS3, SA-dependent and SA-independent invasion) is given as “inhibited to similar levels”. For the same compound, in test [2], the “IC50, inhibition of P. falciparum blood stage growth in GIA” value is 26.7 µg/mL.

On to dextran sulfate, for which, in test [2], the “IC50, inhibition of P. falciparum blood stage growth in GIA” value turned out to be 37 µg/mL.

For “chondroitin sulfate B-2-6-di-sulfated [CSB-2,6-OS]”, the “inhibitory activity against P. falciparum blood stage growth in GIA (words)” value in test [2] is “some inhibitory activity”.

On to “chondroitin sulfate B-2,4-di-sulfated [CSB-2,4-OS]”, for which the “inhibitory activity against P. falciparum blood stage growth in GIA (words)” value in test [2] is on record as “not inhibitory”.

On to de-N-sulfated heparin, for which the “inhibitory activity against P. falciparum blood stage growth in GIA (words)” value in test [2] is “no activity”; in test [2] (listed as de-N-sulfated), “loss of inhibitory activity”. Besides, the figures for the “inhibition of native MSP1-42 binding” value in test [4] and in test [4] (listed as de-N-sulfated) were “not” and “unable to inhibit binding”, respectively.

In the case of `CC(C)C[C@H](NC(=O)[C@H]1O[C@@H]1C(=O)O)C(=O)NCCCCN=C(N)N` (relative stereo) [E64, trans-Epoxysuccinyl-L-leucylamido(4-guanidino)butane], the “effect on invasive capacity of merozoites” value in test [1] (merozoites incubated with E64) is given as “did not affect”. In addition, the “effect on schizont rupture / merozoite release” value in test [6] is “inhibiting rupture”.
